Measured values from PubChem BioAssay AID588343 (Broad Institute, 2011).
Where “and” joins values, the source holds several entries; their conditions need not be identical. Equal entries are not always repeated. Inconclusive results are not listed.

Test system: HEK293 LMP1 TES2 NF-kB luciferase reporter, 16 h
Assay: inhibitors of LMP1-driven NF-kB reporter, dose response, cell-based, HEK293, luciferase, cherry-pick (AID 588343);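 also: potency of compounds lowering the induced NF-kB luciferase signal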

Row | SMILES | AC50
1 | CCN1CCN(Cc2ccc(NC(=O)c3ccc(C)c(NC(=O)N4CCNC4=O)c3)cc2C(F)(F)F)CC1 | 484 nM and 1060 nM and 977 nM
2 | CCN1CCN(Cc2ccc(NC(=O)c3ccc(C)c(NC(=O)c4cccc5[nH]ccc45)c3)cc2C(F)(F)F)CC1 | 418 nM and 146 nM
3 | Cc1ccc(C(=O)Nc2cccc(C(F)(F)F)c2)cc1NC(=O)c1ccno1 | 816 nM and 5400 nM
4 | Nc1ccn([C@@H]2O[C@H](CO)[C@@H](O)C2O)c(=O)n1 (stereo partly specified) | 4970 nM
5 | COc1ccc(O)c2c(=O)c3c(OC)cc4c(c3oc12)C1C=COC1O4 (stereo unspecified) | 698 nM
6 | Nc1ccn([C@@H]2O[C@H](CO)[C@@H](O)[C@@H]2O)c(=O)n1 | 13200 nM
